Laboratory results as given in US9738932B2, “Biomarkers for cardiovascular side-effects induced by cox-2 inhibitory compounds” (FIRALIS SAS, priority 2005, dated 2017).

Tested on: mRNA expression in cardiovascular tissues
Details: cynomolgus monkey, in vivo
Experimental: Administration of compounds. A two-week oral-gavage treatment with the Cox-2 specific inhibitor COX189 (Lumiracoxib®, Novartis) in comparison with rofecoxib (Vioxx®, Merck), and celecoxib (Celebrex®, Pharmacia/Pfizer), and with the nonselective NSAID, diclofenac (Voltaren®, Novartis) was performed. […] The test items were administered daily at doses of 100 mg/kg/day, except Vioxx® which was administered at 50 mg/kg/day.
Gene expression profiles. After a period of time (e.g., four weeks) of compound/drug administration, the treated animals are necropsied. 120 tissues are dissected and rapidly snap-frozen for genomics analysis. Organ samples are isolated for histopathological examinations and for gene expression localizations, such as by in situ hybridization.
Gene expression profiles have been generated using the Affymetrix microarray technology. (i) RNA extraction and purification: Briefly, total RNA was obtained by acid guanidinium thiocyanate-phenol-chloroform extraction (Trizol®, Invitrogen Life Technologies, San Diego, Calif.) from each frozen tissue section and the total RNA was then purified on an affinity resin (Rneasy®, Qiagen) according to the manufacturer's instructions. Total RNA was quantified by the absorbance at λ=260 nm (A260 nm) and the purity was estimated by the ratio A260 nm/A280 nm. Integrity of the RNA molecules was confirmed by non-denaturing agarose gel electrophoresis. RNA was stored at −80° C. until analysis. […] (ii) GeneChip® experiment: All GeneChip® experiments were conducted in the Genomics Factory EU following recommendations by the manufacturer of the GeneChip® system (Affymetrix, Expression Analysis Technical Manual (Affymetrix, Santa Clara, Calif., 2005). Human U133A genome arrays were used for transcript expression analysis. Double stranded cDNA was synthesized with a starting amount of approximately 5 μg full-length total RNA using the Superscript Choice System (Invitrogen Life Technologies) in the presence of a T7-(dT) 24 DNA oligonucleotide primer. Following synthesis, the cDNA was purified by phenol/chloroform/isoamyl alcohol extraction and ethanol precipitation. The purified cDNA was then transcribed in vitro using the BioArray® High Yield RNA Transcript Labeling Kit (ENZO) in the presence of biotinylated ribonucleotides form biotin labelled cRNA. The labelled cRNA was then purified on an affinity resin (Rneasy, Qiagen), quantified and fragmented. An amount of approximately 10 μg labelled cRNA was hybridized for approximately 16 hours at 45° C. to an expression probe array. The array was then washed and stained twice with streptavidin-phycoerythrin (Molecular Probes) using the GeneChip Fluidics Workstation 400 (Affymetrix). The array was then scanned twice using a confocal laser scanner (GeneArray Scanner®, Agilent) resulting in one scanned image. This resulting “.dat-file” was processed using the MASS program (Affymetrix) into a “.cel-file”. The “.cel file” was then transferred to tan Affymetrix GeneChip Laboratory Information Management System (LIMS) database, which is connected to a UNIX Sun Solaris server through a network filing system that allows for the average intensities for all probes cells (CEL file) to be downloaded into an Oracle database (NPGN). Raw data was converted to expression levels using a “target intensity” of 100. […] The data were checked for quality and loaded in the GeneSpring® software versions 5.0 (Silicon Genetics, Calif., US) for statistical analysis.
Quality control analysis of transcriptome data: The following quality measures were analysed for each sample: Scaling factor, background, percent present calls, AFFX-GAPDH 3′: AFFX-GAPDH 5′-ratio, AFFX-GAPDH 3′ variance, AFFX-Beta-actin 3′: AFFX-Beta-actin 5′-ratio.

Cc1ccc(-c2cc(C(F)(F)F)nn2-c2ccc(S(N)(=O)=O)cc2)cc1 [Celebrex]
AIF1 (209901_x_at) avg fold change vs control: 1.5 fold | AIF1 (213095_x_at) avg fold change vs control: 2.0 fold | B2M (201891_s_at) avg fold change vs control: 1.3 fold | BTN3A1 (207485_x_at) avg fold change vs control: 1.7 fold | BTN3A3 (204821_at) avg fold change vs control: 1.6 fold | C1S (208747_s_at) avg fold change vs control: 1.0 fold | C2 (203052_at) avg fold change vs control: 1.1 fold | C4A (208451_s_at) avg fold change vs control: 1.6 fold | CASP1 (211367_s_at) avg fold change vs control: 1.2 fold | CCL3 (205114_s_at) avg fold change vs control: 1.3 fold | CCL5 (1405_i_at) avg fold change vs control: 0.9 fold | CCL19 (210072_at) avg fold change vs control: 2.0 fold | CCNB2 (202705_at) avg fold change vs control: 1.2 fold | CD74 (209619_at) avg fold change vs control: 1.3 fold | CX3CR1 (205898_at) avg fold change vs control: 1.1 fold | DUSP6 (208893_s_at) avg fold change vs control: 1.2 fold | ECGF1 (204858_s_at) avg fold change vs control: 1.1 fold | FCGR3A (204006_s_at) avg fold change vs control: 1.3 fold | GZMB (210164_at) avg fold change vs control: 0.9 fold | HLA-DMA (217478_s_at) avg fold change vs control: 1.4 fold | HLA-DQB1 (211656_x_at) avg fold change vs control: 1.6 fold | HLA-DRB1 (215193_x_at) avg fold change vs control: 1.7 fold | IRF1 (202531_at) avg fold change vs control: 1.1 fold | IRF7 (208436_s_at) avg fold change vs control: 2.1 fold | ISGF3G (203882_at) avg fold change vs control: 1.0 fold | LAIR1 (208071_s_at) avg fold change vs control: 3.6 fold | LRMP (204674_at) avg fold change vs control: 3.8 fold | PLA2G4C (209785_s_at) avg fold change vs control: 1.4 fold | TNFSF10 (202687_s_at) avg fold change vs control: 1.3 fold | TNFSF10 (202688_at) avg fold change vs control: 1.3 fold | 209813_x_at avg fold change vs control (2 weeks): 1.2 fold | BCL3 (204908_s_at) avg fold change vs control (2 weeks): 1.0 fold | BTN3A3 (38241_at) avg fold change vs control (2 weeks): 1.1 fold | BTN3A3 (204820_s_at) avg fold change vs control (2 weeks): 1.3 fold | C1QA (218232_at) avg fold change vs control (2 weeks): 1.5 fold | C1QB (202953_at) avg fold change vs control (2 weeks): 1.1 fold | C1R (212067_s_at) avg fold change vs control (2 weeks): 0.9 fold | CASP1 (209970_x_at) avg fold change vs control (2 weeks): 1.2 fold | CCL2 (216598_s_at) avg fold change vs control (2 weeks): 2.3 fold | CCL8 (214038_at) avg fold change vs control (2 weeks): 1.3 fold | CCL18 (209924_at) avg fold change vs control (2 weeks): 1.5 fold | CD3D (213539_at) avg fold change vs control (2 weeks): 3.2 fold | CD8A (205758_at) avg fold change vs control (2 weeks): 1.0 fold | CD14 (201743_at) avg fold change vs control (2 weeks): 1.1 fold | CLU (208791_at) avg fold change vs control (2 weeks): 0.8 fold | CMAH (210571_s_at) avg fold change vs control (2 weeks): 1.0 fold | CTSC (201487_at) avg fold change vs control (2 weeks): 1.3 fold | CTSK (202450_s_at) avg fold change vs control (2 weeks): 1.0 fold | CTSS (202902_s_at) avg fold change vs control (2 weeks): 1.2 fold | CXCL9 (203915_at) avg fold change vs control (2 weeks): 1.4 fold | CXCL10 (204533_at) avg fold change vs control (2 weeks): 1.1 fold | CXCL11 (210163_at) avg fold change vs control (2 weeks): 3.7 fold | CXCL11 (211122_s_at) avg fold change vs control (2 weeks): 1.6 fold | CXCL12 (209687_at) avg fold change vs control (2 weeks): 1.1 fold | CYBA (203028_s_at) avg fold change vs control (2 weeks): 1.2 fold | CYBB (203923_s_at) avg fold change vs control (2 weeks): 1.2 fold | CYP1B1 (202436_s_at) avg fold change vs control (2 weeks): 1.0 fold | CYP3A5 (214234_s_at) avg fold change vs control (2 weeks): 1.3 fold | CYP11B1 (214630_at) avg fold change vs control (2 weeks): 1.1 fold | ECM1 (209365_s_at) avg fold change vs control (2 weeks): 0.9 fold | F2RL1 (206429_at) avg fold change vs control (2 weeks): 1.1 fold | F13A1 (203305_at) avg fold change vs control (2 weeks): 0.9 fold | FCGR1A (214511_x_at) avg fold change vs control (2 weeks): 1.1 fold | G1P2 (205483_s_at) avg fold change vs control (2 weeks): 1.4 fold | HCA127 (220040_x_at) avg fold change vs control (2 weeks): 1.0 fold | HCK (208018_s_at) avg fold change vs control (2 weeks): 1.4 fold | HFE (210864_x_at) avg fold change vs control (2 weeks): 1.1 fold | HFE (211329_x_at) avg fold change vs control (2 weeks): 0.7 fold | HFE (211332_x_at) avg fold change vs control (2 weeks): 0.8 fold | HFE (211863_x_at) avg fold change vs control (2 weeks): 0.9 fold | HFE (211866_x_at) avg fold change vs control (2 weeks): 0.9 fold | HHL (203020_at) avg fold change vs control (2 weeks): 1.4 fold | HLA-A (211528_x_at) avg fold change vs control (2 weeks): 1.1 fold | HLA-A (211529_x_at) avg fold change vs control (2 weeks): 1.2 fold | HLA-A (211530_x_at) avg fold change vs control (2 weeks): 1.5 fold | HLA-A (215313_x_at) avg fold change vs control (2 weeks): 1.2 fold | HLA-B (208729_x_at) avg fold change vs control (2 weeks): 1.1 fold | HLA-B (209140_x_at) avg fold change vs control (2 weeks): 1.1 fold | HLA-B (211911_x_at) avg fold change vs control (2 weeks): 1.2 fold | HLA-C (208812_x_at) avg fold change vs control (2 weeks): 1.2 fold | HLA-C (214459_x_at) avg fold change vs control (2 weeks): 1.3 fold | HLA-C (216526_x_at) avg fold change vs control (2 weeks): 1.2 fold | HLA-DMB (203932_at) avg fold change vs control (2 weeks): 1.4 fold | HLA-DQA1 (212671_s_at) avg fold change vs control (2 weeks): 2.1 fold | HLA-DQB1 (209823_x_at) avg fold change vs control (2 weeks): 2.0 fold | HLA-DQB1 (211654_x_at) avg fold change vs control (2 weeks): 2.0 fold | HLA-DQB2 (212998_x_at) avg fold change vs control (2 weeks): 1.9 fold | HLA-DRA (208894_at) avg fold change vs control (2 weeks): 1.3 fold | HLA-DRA (210982_s_at) avg fold change vs control (2 weeks): 1.5 fold | HLA-DRB3 (209312_x_at) avg fold change vs control (2 weeks): 1.5 fold | HLA-DRB6 (217362_x_at) avg fold change vs control (2 weeks): 1.4 fold | HLA-E (200905_x_at) avg fold change vs control (2 weeks): 1.1 fold | HLA-E (217456_x_at) avg fold change vs control (2 weeks): 1.2 fold | HLA-F (204806_x_at) avg fold change vs control (2 weeks): 1.2 fold | HLA-F (221875_x_at) avg fold change vs control (2 weeks): 1.0 fold | ICAM1 (202638_s_at) avg fold change vs control (2 weeks): 0.8 fold | ICAM1 (215485_s_at) avg fold change vs control (2 weeks): 1.1 fold
